The values that follow come from US20050069532A1, “Treatment of bacterial infection with elastase” (priority 2002, published 2005).

Residues, ends and D or L forms follow the SMILES beside them. *: point of attachment. MeOSuc = COC(=O)CCC(=O)*; CH2Cl = ClC* Where only a bound is given, the exact number is not on record here.

Data set [1] deals with neutrophil elastase in hNEGP (Homo sapiens, UniProt P08246). It is filed as biochemical.
Data set [2] has as its target T1, Neutrophil elastase (Homo sapiens, UniProt P08246).
T1 sequence (P08246 30-267): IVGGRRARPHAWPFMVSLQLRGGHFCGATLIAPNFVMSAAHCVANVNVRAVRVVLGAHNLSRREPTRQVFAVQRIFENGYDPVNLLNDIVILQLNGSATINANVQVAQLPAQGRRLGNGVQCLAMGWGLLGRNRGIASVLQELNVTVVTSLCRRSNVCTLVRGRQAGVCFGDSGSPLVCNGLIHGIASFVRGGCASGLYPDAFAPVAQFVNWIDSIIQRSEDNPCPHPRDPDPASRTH
In words: Neutrophil elastase enzymatic assay in hNEGP (N-methoxysuccinyl-Ala-Ala-Pro-Val-p-nitroanilide substrate). As to conditions: hNEGP pretreated with inhibitor (PMSF 1 mM, rm temp 20 min).
Protocol: Neutrophil elastase activity of intact neutrophils was determined as previously described (Huang et al., “Effect of Trifluoromethyl Ketone-Based Elastase Inhibitors on Neutrophil Function in Vitro,” J Leukoc Biol 64:322-330 (1998), which is hereby incorporated by reference).

The test system of data set [3] is wild-type Shigella flexneri (M90T). It is filed as cell-based.
Data set [4] relates to Secreted proteins from Shigella. It is filed as biochemical.
The subject of the next data set is MxiA and MxiD. It is filed as biochemical, Shigella.
In data set [5] the test system is Secreted proteins from wild type Salmonella typhimurium (strain SL1344). It is filed as biochemical.
Data set [6] deals with OmpA of nonpathogenic Escherichia coli. As to conditions: 4 h with 106 bacteria; cited from earlier work.
Sequence of OmpA of nonpathogenic Escherichia coli (P0A910 22-346): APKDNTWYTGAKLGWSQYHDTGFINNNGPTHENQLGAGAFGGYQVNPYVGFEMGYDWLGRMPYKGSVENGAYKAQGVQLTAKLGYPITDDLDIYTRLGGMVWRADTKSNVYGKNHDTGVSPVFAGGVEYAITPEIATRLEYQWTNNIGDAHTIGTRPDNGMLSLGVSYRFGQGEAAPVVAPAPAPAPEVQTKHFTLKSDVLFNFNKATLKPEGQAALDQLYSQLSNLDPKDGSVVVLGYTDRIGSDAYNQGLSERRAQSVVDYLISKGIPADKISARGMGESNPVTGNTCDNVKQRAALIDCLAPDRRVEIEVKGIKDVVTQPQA
The test system of data set [7] is Shigella virulence proteins (IpaA, IpaB, IpaC, IcsA). It is filed as biochemical, Shigella flexneri.
Data set [8] has as its system human neutrophils infected with wild type Shigella. It is filed as cell-based. The following applies: 20 μM, 10 bacteria/neutrophil.
Data set [9] concerns neutrophils. The following applies: cited from earlier work.
In data set [10] the test system is neutrophils. As to the kind of experiment: Cytotoxicity of inhibitor by lactate dehydrogenase (LDH) release.
The subject of data set [11] is human neutrophils infected with Shigella. It is filed as cell-based. As to conditions: 20 μM.
Data set [12] has the same test system. The following applies: 20 μM, LDH release after 2 h incubation.
The next data set concerns Proteinase 3. As to conditions: cited from earlier work.
Data set [13] relates to neutrophil elastase. The following applies: cited from earlier work.
The test system of another data set is Cathepsin G. The following applies: cited from earlier work.

Sequence of InvG (P35672 25-562): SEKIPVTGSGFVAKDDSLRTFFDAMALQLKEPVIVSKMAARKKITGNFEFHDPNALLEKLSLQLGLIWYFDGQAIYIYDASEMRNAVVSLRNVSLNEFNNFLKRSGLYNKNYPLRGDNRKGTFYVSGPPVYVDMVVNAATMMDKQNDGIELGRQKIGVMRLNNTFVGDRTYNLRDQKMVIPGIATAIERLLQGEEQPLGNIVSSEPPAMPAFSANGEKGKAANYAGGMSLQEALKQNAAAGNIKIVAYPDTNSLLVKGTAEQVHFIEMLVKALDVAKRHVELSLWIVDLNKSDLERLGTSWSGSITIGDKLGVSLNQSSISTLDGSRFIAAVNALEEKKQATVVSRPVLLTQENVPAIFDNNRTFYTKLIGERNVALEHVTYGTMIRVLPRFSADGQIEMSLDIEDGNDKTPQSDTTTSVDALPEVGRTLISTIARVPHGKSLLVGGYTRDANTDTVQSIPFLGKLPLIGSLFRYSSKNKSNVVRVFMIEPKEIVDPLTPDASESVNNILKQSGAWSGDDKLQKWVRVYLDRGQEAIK

`O=S(=O)(F)Cc1ccccc1` [PMSF, phenylmethylsulfonyl fluoride]: in [1], the “blocking of hNEGP degradation of IpaA, B, C and IcsA” value (“blocking” for short) is given as “blocked the degradation”. The “inhibition of neutrophil elastase activity in hNEGP” value (“inhibition” for short) at Neutrophil elastase [2] is listed as “completely inhibited”.

Consider neutrophil elastase, for which the “neutrophil elastase concentration affecting bacterial viability” value in data set [3] was > 2,000 nM. In [4], the “cleavage of proteins not associated with virulence (SepA and OspF)” value was “remained intact”; the “cleavage of virulence factors (e.g. VirA and the Ipas)” value is “cleaved”. Besides, the “degradation of MxiA and MxiD” value in the data set with MxiA and MxiD is given as “not degraded”. Further, in data set [5], the “degradation of FliB and FliC” value is “not degraded”; the “degradation of SipA, B, C and HAPs” value is recorded as “degraded”. For the same molecule, the “neutrophil elastase concentration that partially digests OmpA” value in data set [6] was 2 µM. In addition, in [7], the “degradation of OmpA in Shigella or E. coli” value was “not degraded”, the “neutrophil elastase concentration at which IcsA was degraded” value is 1.2 nM and the “neutrophil elastase concentration that cleaved Shigella virulence proteins significantly” value is given as at least 1.2 nM. In addition, in the data set with InvG, the “degradation of InvG” value is “not degraded”.

Turning to Cathepsin G, in data set [7], the “degradation of Shigella effectors” value is recorded as “did not degrade”.

Turning to `CC(C)C(NC(=O)[C@@H]1CCCN1C(=O)[C@@H](NC(=O)c1ccc(C(=O)NS(=O)(=O)c2ccc(Br)cc2)cc1)C(C)C)C(=O)C(F)(F)F` (stereo partly drawn) [ICI-200355], in data set [8], the “Shigella survival in inhibitor-treated neutrophils versus controls” value is “survived indeed better”. In the data set with neutrophils [9], the “effect on ingestion or killing of non-virulent bacteria” value is listed as “does not affect”. Besides, in the data set with neutrophils [10], the “cytotoxicity (LDH release)” value is reported as “not cytotoxic”. Moreover, in [11], the “location of non-invasive Shigella strain in neutrophils incubated with inhibitor” value is recorded as “remained in the phagosome”. Further, the “location of wild type Shigella in neutrophils pre-incubated with inhibitor” value in data set [11] (fixed 30 min post-infection) is reported as “free in the cytoplasm”. In addition, in [12], the “neutrophil cell death with noninvasive Shigella control strains after inhibitor pretreatment” value was “no cell death”.

On to `COC(=O)CCC(=O)N[C@@H](C)C(=O)N[C@@H](C)C(=O)N1CCC[C@H]1C(=O)N[C@H](C(=O)CCl)C(C)C` [MeOSuc-AAPV-cmk, MeOSucAlaAlaProVal-chloromethyl ketone] (MeOSuc-AAPV-CH2Cl), for which, in [1], the “blocking” value is given as “effectively blocked degradation”. Also, the “inhibition” value on Neutrophil elastase [2] was “completely inhibited”.

B1: SLPI: physiologic inhibitor, human Secretory Leukocyte Protease Inhibitor (protein, UniProt P03973 26-132, looked up)
Antileukoproteinase: SGKSFKAGVCPPKKSAQCLRYKKPECQSDWQCPGKKRCCPDTCGIKCLDPVDTPNPTRRKPGKCPVTYGQCLMLNPPNFCEMDGQCKRDLKCCMGMCGKSCVSPVKA
B1: the “blocking” value in data set [1] is recorded as “effectively blocked degradation”. In addition, in the data set with Neutrophil elastase [2], the “inhibition” value is reported as “completely inhibited”. Besides, the “block of Proteinase 3” value in the data set with Proteinase 3 is listed as “not”. For the same molecule, in the data set with neutrophil elastase [13], the “block of neutrophil elastase” value is “blocks”. Further, in the data set with Cathepsin G, the “block of Cathepsin G” value is listed as “blocks”.
